According to ChEMBL document CHEMBL1121716, “Potential organ- or tumor-imaging agents. 21. Acyl-labeled esters of cholesterol” (J Med Chem, 1981):
One block for each molecule: values may come before it.

Columns and labels:
Details in all cases: in vivo
Rattus norvegicus [1] = test: Accumulation in adrenal cortex was evaluated by distribution of radioactivity at 0.5 hr after intravenous administration of 4-14C radiolabeled Cholesteryl Oleate to Rats; format: ADME, organism-based
Rattus norvegicus [2] = test: Accumulation in adrenal cortex was evaluated by distribution of radioactivity at 0.5 h after intravenous administration of oleate 1-14C radiolabeled Cholesteryl Oleate to Rats; format: ADME, organism-based
Rattus norvegicus [3] = test: Accumulation in blood was evaluated by distribution of radioactivity at 0.5 hr after intravenous administration of 4-14C radiolabeled Cholesteryl Oleate to Rats; format: ADME, organism-based
Rattus norvegicus [4] = test: Accumulation in blood was evaluated by distribution of radioactivity at 0.5 hr after intravenous administration of oleate 1-14C radiolabeled Cholesteryl Oleate to Rats; format: ADME, organism-based
Rattus norvegicus [5] = test: Accumulation in liver was evaluated by distribution of radioactivity at 0.5 hr after intravenous administration of 4-14C radiolabeled Cholesteryl Oleate to Rats; format: ADME, organism-based
Rattus norvegicus [6] = test: Accumulation in liver was evaluated by distribution of radioactivity at 0.5 hr after intravenous administration of oleate 1-14C radiolabeled Cholesteryl Oleate to Rats; format: ADME, organism-based
Rattus norvegicus [7] = test: Accumulation in thyroid was evaluated by distribution of radioactivity at 0.5 hr after intravenous administration of 4-14C radiolabeled Cholesteryl Oleate to Rats; format: ADME, organism-based, Thyroid gland
Rattus norvegicus [8] = test: Accumulation in thyroid was evaluated by distribution of radioactivity at 0.5 hr after intravenous administration of oleate 1-14C radiolabeled Cholesteryl Oleate to Rats; format: ADME, organism-based, Thyroid gland
Rattus norvegicus [9] = test: Accumulation in ovary was evaluated by distribution of radioactivity at 0.5 hr after intravenous administration of 4-14C radiolabeled Cholesteryl Oleate to Rats; format: ADME, organism-based, Female gonad
Rattus norvegicus [10] = test: Accumulation in ovary was evaluated by distribution of radioactivity at 0.5 hr after intravenous administration of oleate 1-14C radiolabeled Cholesteryl Oleate to Rats; format: ADME, organism-based, Female gonad
Rattus norvegicus [11] = test: Accumulation in adrenal cortex was evaluated by distribution of radioactivity at 0.5 hr after intravenous administration of radioiodinated cholesteryl 2,3,5-tri[125I]iodobenzoate to Rats; format: ADME, organism-based
Rattus norvegicus [12] = test: Accumulation in adrenal cortex was evaluated by distribution of radioactivity at 24 hr after intravenous administration of radioiodinated cholesteryl 2,3,5-tri[125I]iodobenzoate to Rats; format: ADME, organism-based
Rattus norvegicus [13] = test: Accumulation in blood was evaluated by distribution of radioactivity at 0.5 hr after intravenous administration of radioiodinated cholesteryl 2,3,5-tri[125I]iodobenzoate to Rats; format: ADME, organism-based
Rattus norvegicus [14] = test: Accumulation in blood was evaluated by distribution of radioactivity at 24 hr after intravenous administration of radioiodinated cholesteryl 2,3,5-tri[125I]iodobenzoate to Rats; format: ADME, organism-based
Rattus norvegicus [15] = test: Accumulation in liver was evaluated by distribution of radioactivity at 0.5 hr after intravenous administration of radioiodinated cholesteryl 2,3,5-tri[125I]iodobenzoate to Rats; format: ADME, organism-based
Rattus norvegicus [16] = test: Accumulation in liver was evaluated by distribution of radioactivity at 24 hr after intravenous administration of radioiodinated cholesteryl 2,3,5-tri[125I]iodobenzoate to Rats; format: ADME, organism-based
Rattus norvegicus [17] = test: Accumulation in lung was evaluated by distribution of radioactivity at 0.5 hr after intravenous administration of radioiodinated cholesteryl 2,3,5-tri[125I]iodobenzoate to Rats; format: ADME, organism-based
Rattus norvegicus [18] = test: Accumulation in lung was evaluated by distribution of radioactivity at 24 hr after intravenous administration of radioiodinated cholesteryl 2,3,5-tri[125I]iodobenzoate to Rats; format: ADME, organism-based
Rattus norvegicus [19] = test: Accumulation in spleen was evaluated by distribution of radioactivity at 24 h after intravenous administration of radioiodinated cholesteryl 2,3,5-tri[125I]iodobenzoate to Rats; format: ADME, organism-based
Rattus norvegicus [20] = test: Accumulation in thyroid was evaluated by distribution of radioactivity at 0.5 hr after intravenous administration of radioiodinated cholesteryl 2,3,5-tri[125I]iodobenzoate to Rats; format: ADME, organism-based, Thyroid gland
Rattus norvegicus [21] = test: Accumulation in thyroid was evaluated by distribution of radioactivity at 24 hr after intravenous administration of radioiodinated cholesteryl 2,3,5-tri[125I]iodobenzoate to Rats; format: ADME, organism-based, Thyroid gland
Rattus norvegicus [22] = test: Accumulation in ovary was evaluated by distribution of radioactivity at 0.5 hr after intravenous administration of radioiodinated cholesteryl 2,3,5-tri[125I]iodobenzoate to Rats; format: ADME, organism-based, Female gonad
Rattus norvegicus [23] = test: Accumulation in ovary was evaluated by distribution of radioactivity at 24 hr after intravenous administration of radioiodinated cholesteryl 2,3,5-tri[125I]iodobenzoate to Rats; format: ADME, organism-based, Female gonad
Rattus norvegicus [24] = test: Accumulation in spleen was evaluated by distribution of radioactivity at 0.5 hr after intravenous administration of radioiodinated cholesteryl 2,3,5-tri[125I]iodobenzoate to Rats; format: ADME, organism-based

SMILES: CCCCCCCC/C=C\CCCCCCCC(=O)OC1CCC2(C)C(=CCC3C2CCC2(C)C(C(C)CCCC(C)C)CCC32)C1 (centres undefined)
Dose/g of tissue (Rattus norvegicus [1]): 3.85%
Dose/g of tissue (Rattus norvegicus [2]): 2.448%
Dose/g of tissue (Rattus norvegicus [3]): 5.78%
Dose/g of tissue (Rattus norvegicus [4]): 5.196%
Dose/g of tissue (Rattus norvegicus [5]): 1.569%
Dose/g of tissue (Rattus norvegicus [6]): 1.236%
Dose/g of tissue (Rattus norvegicus [7]): 0.446%
Dose/g of tissue (Rattus norvegicus [8]): 0.344%
Dose/g of tissue (Rattus norvegicus [9]): 2.815%
Dose/g of tissue (Rattus norvegicus [10]): 2.088%

Dose/g of tissue (Rattus norvegicus [11]): 5.455%
Dose/g of tissue (Rattus norvegicus [12]): 9.032%
Dose/g of tissue (Rattus norvegicus [13]): 5.46%
Dose/g of tissue (Rattus norvegicus [14]): 0.568%
Dose/g of tissue (Rattus norvegicus [15]): 2.726%
Dose/g of tissue (Rattus norvegicus [16]): 5.106%
Dose/g of tissue (Rattus norvegicus [17]): 1.49%
Dose/g of tissue (Rattus norvegicus [18]): 0.703%
Dose/g of tissue (Rattus norvegicus [19]): 1.68%
Dose/g of tissue (Rattus norvegicus [20]): 0.47%
Dose/g of tissue (Rattus norvegicus [21]): 2.63%
Dose/g of tissue (Rattus norvegicus [22]): 6.148%
Dose/g of tissue (Rattus norvegicus [23]): 16.19%
Dose/g of tissue (Rattus norvegicus [24]): 0.57%
SMILES: CC(C)CCCC(C)C1CCC2C3CC=C4CC(OC(=O)c5cc(I)cc(I)c5I)CCC4(C)C3CCC12C (centres undefined)
